From patent US12673961B2 (Agios Pharmaceuticals, Inc., priority 2022, dated 2026)

Molecular target: T1, human PAH with the R408W mutation (Homo sapiens, UniProt P00439, R408W)
T1 construct: expressed in transfected cells
T1 sequence (P00439 1-452 R408W): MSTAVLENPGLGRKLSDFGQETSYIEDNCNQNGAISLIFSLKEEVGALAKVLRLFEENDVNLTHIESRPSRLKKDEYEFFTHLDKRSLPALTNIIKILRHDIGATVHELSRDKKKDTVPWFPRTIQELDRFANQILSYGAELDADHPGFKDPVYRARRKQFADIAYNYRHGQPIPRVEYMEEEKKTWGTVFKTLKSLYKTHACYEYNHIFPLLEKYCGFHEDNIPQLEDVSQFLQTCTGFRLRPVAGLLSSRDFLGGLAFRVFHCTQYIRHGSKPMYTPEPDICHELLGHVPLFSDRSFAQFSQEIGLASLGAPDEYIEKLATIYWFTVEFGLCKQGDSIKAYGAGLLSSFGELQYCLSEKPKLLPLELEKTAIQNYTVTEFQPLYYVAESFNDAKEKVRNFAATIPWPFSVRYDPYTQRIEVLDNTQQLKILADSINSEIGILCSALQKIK
Assay: Cell Based Phenylalanine Flux Assay;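 further: Ten-point dose curve from 2-fold serial dilutions, run in duplicate at 0.5% DMSO final, tracer step used 20 µM sepiapterin and 800 µM labeled phenylalanine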
Conditions: A375 cells expressing human R408W PAH; 24 hrs compound incubation; 13C-Tyrosine by LC-MS; average where tested multiple times; read-out: AC50

AC50 [µM]	SMILES
< 0.5	O=C(c1ocnc1C(F)F)N1CCc2[nH]cnc2[C@H]1c1cc2ccc(C(F)(F)F)cn2n1 [Example 1104, (S)-(4-(difluoromethyl)oxazol-5-yl)(4-(6-(trifluoromethyl)pyrazolo [1,5-a]pyridin-2-yl)-6,7-dihydro-1H-imidazo[4,5-c]pyridin-5(4H)-yl)methanone]
< 0.5	CC(C)(F)c1nnc(C(=O)N2CCc3[nH]cnc3[C@H]2c2cc3c(Cl)cccn3n2)o1 [Example 1109, (S)-(4-(4-chloropyrazolo [1,5-a]pyridin-2-yl)-6,7-dihydro-1H-imidazo[4,5-c]pyridin-5(4H)-yl)(5-(2-fluoropropan-2-yl)-1,3,4-oxadiazol-2-yl)methanone]
0.5 to 1	Cc1ccc2cc([C@@H]3c4nc[nH]c4CCN3C(=O)c3nnc(C(C)(C)C)o3)nn2c1 [Example 1110, (S)-(5-(tert-butyl)-1,3,4-oxadiazol-2-yl)(4-(6-methylpyrazolo[1,5-a]pyridin-2-yl)-6,7-dihydro-1H-imidazo[4,5-c]pyridin-5(4H)-yl)methanone]
< 0.5	CC(C)(O)c1nc(C(F)F)c(C(=O)N2CCc3[nH]cnc3[C@H]2c2cc3ccc(C(F)(F)F)cn3n2)o1 [Example 1116, (S)-(4-(difluoromethyl)-2-(2-hydroxypropan-2-yl)oxazol-5-yl)(4-(6-(trifluoromethyl)pyrazolo[1,5-a]pyridin-2-yl)-6,7-dihydro-1H-imidazo [4,5-c]pyridin-5(4H)-yl)methanone]
> 5	CC(C)(O)c1nc(C(F)F)c(C(=O)N2CCc3[nH]cnc3[C@@H]2c2cc3ccc(C(F)(F)F)cn3n2)o1 [Example 1117, (R)-(4-(difluoromethyl)-2-(2-hydroxypropan-2-yl)oxazol-5-yl)(4-(6-(trifluoromethyl)pyrazolo[1,5-a]pyridin-2-yl)-6,7-dihydro-1H-imidazo[4,5-c]pyridin-5(4H)-yl)methanone]
< 0.5	O=C(c1nnc(-c2ccn(C(F)F)n2)o1)N1CCc2[nH]cnc2[C@H]1c1cc2c(Cl)cccn2n1 [Example 1118, (S)-(4-(4-chloropyrazolo [1,5-a]pyridin-2-yl)-6,7-dihydro-1H-imidazo[4,5-c]pyridin-5(4H)-yl)(5-(1-(difluoromethyl)-1H-pyrazol-3-yl)-1,3,4-oxadiazol-2-yl)methanone]
1 to 5	CC(C)(C)c1nnc(C(=O)N2CCc3[nH]cnc3[C@@H]2c2cc3ccc(F)cn3n2)o1 [Example 1125, (R)-(5-(tert-butyl)-1,3,4-oxadiazol-2-yl)(4-(6-fluoropyrazolo[1,5-a]pyridin-2-yl)-6,7-dihydro-1H-imidazo[4,5-c]pyridin-5(4H)-yl)methanone]
1 to 5	Cn1nc(C(F)F)nc1C(=O)N1CCc2[nH]cnc2[C@@H]1c1cc2ccc(C(F)(F)F)cn2n1 [Example 1127, (R)-(3-(difluoromethyl)-1-methyl-1H-1,2,4-triazol-5-yl)(4-(6-(trifluoromethyl)pyrazolo[1,5-a]pyridin-2-yl)-6,7-dihydro-1H-imidazo [4,5-c]pyridin-5(4H)-yl)methanone]
1 to 5	O=C(c1ccnn1C(F)F)N1CCc2[nH]cnc2[C@@H]1c1cc2cc(C(F)(F)F)ccn2n1 [Example 1133, (R)-(1-(difluoromethyl)-1H-pyrazol-5-yl)(4-(5-(trifluoromethyl)pyrazolo [1,5-a]pyridin-2-yl)-6,7-dihydro-1H-imidazo[4,5-c]pyridin-5(4H)-yl)methanone]
1 to 5	O=C(c1nnc(C2CC2)o1)N1CCc2[nH]cnc2[C@@H]1c1cc2cccc(Cl)n2n1 [Example 1136, (R)-(4-(7-chloropyrazolo [1,5-a]pyridin-2-yl)-6,7-dihydro-1H-imidazo[4,5-c]pyridin-5(4H)-yl)(5-cyclopropyl-1,3,4-oxadiazol-2-yl)methanone]
0.5 to 1	O=C(c1nnc(C2CC2)o1)N1CCc2[nH]cnc2[C@H]1c1cc2cccc(Cl)n2n1 [Example 1137]
1 to 5	O=C(c1ccnn1C(F)F)N1CCc2[nH]cnc2[C@@H]1c1cc2ccc(C(F)(F)F)cn2n1 [Example 1139, (R)-(1-(difluoromethyl)-1H-pyrazol-5-yl)(4-(6-(trifluoromethyl)pyrazolo [1,5-a]pyridin-2-yl)-6,7-dihydro-1H-imidazo[4,5-c]pyridin-5(4H)-yl)methanone]

Further lines, the compound ahead of its results:

SMILES	AC50 [µM]
Cn1ccc(-c2nnc(C(=O)N3CCc4[nH]cnc4[C@@H]3c3cc4cccc(C(F)(F)F)n4n3)o2)n1 [Example 1031, (R)-(5-(1-methyl-1H-pyrazol-3-yl)-1,3,4-oxadiazol-2-yl)(4-(7-(trifluoromethyl)pyrazolo[1,5-a]pyridin-2-yl)-6,7-dihydro-1H-imidazo [4,5-c]pyridin-5(4H)-yl)methanone]	> 5
O=C(c1nnc(-c2ccccn2)o1)N1CCc2[nH]cnc2[C@@H]1c1cc2cccc(Cl)n2n1 [Example 1043, (R)-(4-(7-chloropyrazolo [1,5-a]pyridin-2-yl)-6,7-dihydro-1H-imidazo[4,5-c]pyridin-5(4H)-yl)(5-(pyridin-2-yl)-1,3,4-oxadiazol-2-yl) methanone]	> 5
Cn1ncnc1C(=O)N1CCc2[nH]cnc2[C@H]1c1cc2c(Cl)cccn2n1 [Example 1050, (S)-(4-(4-chloropyrazolo [1,5-a]pyridin-2-yl)-6,7-dihydro-1H-imidazo[4,5-c]pyridin-5(4H)-yl)(1-methyl-1H-1,2,4-triazol-5-yl)methanone]	< 0.5
Cc1cccn2nc([C@H]3c4nc[nH]c4CCN3C(=O)c3nc(C4CC4)nn3C)cc12 [Example 1059]	> 5
Cn1nc(C(F)(F)F)nc1C(=O)N1CCc2[nH]cnc2[C@H]1c1cc2c(C(F)(F)F)cccn2n1 [Example 1062, (S)-(1-methyl-3-(trifluoromethyl)-1H-1,2,4-triazol-5-yl)(4-(4-(trifluoromethyl)pyrazolo[1,5-a]pyridin-2-yl)-6,7-dihydro-1H-imidazo [4,5-c]pyridin-5(4H)-yl)methanone]	< 0.5
O=C(c1ccnn1C(F)F)N1CCc2[nH]cnc2[C@@H]1c1cc2cccc(Cl)n2n1 [Example 1065, (R)-(4-(7-chloropyrazolo [1,5-a]pyridin-2-yl)-6,7-dihydro-1H-imidazo[4,5-c]pyridin-5(4H)-yl)(1-(difluoromethyl)-1H-pyrazol-5-yl)methanone]	1 to 5
Cn1cc(-c2nnc(C(=O)N3CCc4[nH]cnc4[C@@H]3c3cc4cccc(Cl)n4n3)o2)cn1 [Example 1067, (R)-(4-(7-chloropyrazolo [1,5-a]pyridin-2-yl)-6,7-dihydro-1H-imidazo[4,5-c]pyridin-5(4H)-yl)(5-(1-methyl-1H-pyrazol-4-yl)-1,3,4-oxadiazol-2-yl)methanone]	> 5
Cn1nc(C2CC2)nc1C(=O)N1CCc2[nH]cnc2[C@@H]1c1cc2c(Cl)cccn2n1 [Example 1073, (R)-(4-(4-chloropyrazolo [1,5-a]pyridin-2-yl)-6,7-dihydro-1H-imidazo[4,5-c]pyridin-5(4H)-yl)(3-cyclopropyl-1-methyl-1H-1,2,4-triazol-5-yl)methanone]	1 to 5
Cc1nc(C(=O)N2CCc3[nH]cnc3[C@H]2c2cc3c(Cl)cccn3n2)n(C)n1 [Example 1074, (S)-(4-(4-chloropyrazolo [1,5-a]pyridin-2-yl)-6,7-dihydro-1H-imidazo[4,5-c]pyridin-5(4H)-yl)(1,3-dimethyl-1H-1,2,4-triazol-5-yl)methanone]	0.5 to 1
